According to patent US20080299140A1, “Immunogenic Composition and Peptide Sequences for Prevention and Treatment of an Hsv Condition” (priority 2002, published 2008):
Substitutions are numbered along the chain they refer to. Like-named read-outs stand apart in the source and are kept apart here.

Experiments:
[1] = molecular target: T1, DR11=HLA-DR(α1*0101,α1*1101) (Homo sapiens, UniProt P01903+P01911, A100R/A169T/A87E/I96F/K41T/L162R/M171V/P40S/Q125H/Q178H/Q39Y/Q99D/R42S/S66Y/T262R/V115G/W38E); assay: biochemical; type: binding
T1 construct: endogenous in cells; host or cells: SWEIG (EBV homozygous B cell line)

[2] = molecular target: T2, DRB3=HLA-DR(α1*0101,α3*0101) (Homo sapiens, UniProt P01903+P79483); assay: HLA-DR specific binding assay, DRB3 (DR52)
T2 construct: endogenous in cells; host or cells: STEILIN or 0206AD (both typed DRB3*0101)
T2 sequence (P79483 30-266, other chains not shown): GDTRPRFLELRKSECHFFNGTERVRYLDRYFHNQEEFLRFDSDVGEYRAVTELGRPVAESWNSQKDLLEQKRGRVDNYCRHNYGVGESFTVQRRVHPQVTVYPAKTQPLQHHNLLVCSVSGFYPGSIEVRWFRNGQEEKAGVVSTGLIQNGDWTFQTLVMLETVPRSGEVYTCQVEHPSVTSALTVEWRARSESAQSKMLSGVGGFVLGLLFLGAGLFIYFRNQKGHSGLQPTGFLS

[3] = molecular target: T3, DR4=HLA-DR(α1*0101,α1*0401) (Homo sapiens, UniProt P01903+P01911, A100K/A169T/F76Y/I96L/K127E/L162R/M171V/N62H/P40V/Q125Y/R42H/S133A/S149N/S66Y/V115G/V209L/W38E); assay: biochemical; type: binding
T3 construct: endogenous in cells; host or cells: BOLETH (EBV homozygous B cell line)

[4] = molecular target: T4, DR3=HLA-DR(α1*0101,α1*0301) (Homo sapiens, UniProt P01903+P01911, A100K/A102G/A103R/A169T/F55Y/I96L/K41T/L162R/M171V/P40S/Q125H/Q178H/Q39Y/R42S/S66N/T106N/T262R/W38E/Y61H); assay: HLA-DR specific binding assay, DR3
T4 construct: endogenous in cells; host or cells: STEILIN (EBV homozygous B cell line)

[5] = molecular target: T5, DRB4=HLA-DR(α1*0101,α4*0101) (Homo sapiens, UniProt P01903+P13762, G164S); assay: HLA-DR specific binding assay, DRB4 (DR53)
T5 construct: endogenous in cells

[6] = molecular target: T6, DR13=HLA-DR(α1*0101,α1*1301) (Homo sapiens, UniProt P01903+P01911, A100E/A169T/K41T/L162R/M171V/P40S/Q125H/Q178H/Q39Y/Q99D/R42S/S66N/T262R/W38E/Y61H); assay: HLA-DR specific binding assay, DR13
T6 construct: endogenous in cells; host or cells: 0206AD (EBV homozygous B cell line)

[7] = molecular target: T7, DR7=HLA-DR(α1*0101,α1*0701) (Homo sapiens, UniProt P01903+P01911, A100R/A102G/A103Q/D57E/D86V/E43K/F76Y/K127E/L162R/M171V/P40G/Q125H/Q99D/R33Q/R42Y/R54Q/S133A/S66F/T210M/V115G/Y107V/Y59L/Y89S); assay: HLA-DR specific binding assay, DR7
T7 construct: endogenous in cells; host or cells: EBV homozygous human B cell line

[8] = molecular target: T8, DRB5=HLA-DR(α1*0101,α5*0101) (Homo sapiens, UniProt P01903+Q30154); assay: biochemical; type: binding; settings: Table V; […]; read-out: IC50 DRB5
T8 construct: endogenous in cells; host or cells: EBV homozygous human B cell line
T8 sequence (Q30154 30-266, other chains not shown): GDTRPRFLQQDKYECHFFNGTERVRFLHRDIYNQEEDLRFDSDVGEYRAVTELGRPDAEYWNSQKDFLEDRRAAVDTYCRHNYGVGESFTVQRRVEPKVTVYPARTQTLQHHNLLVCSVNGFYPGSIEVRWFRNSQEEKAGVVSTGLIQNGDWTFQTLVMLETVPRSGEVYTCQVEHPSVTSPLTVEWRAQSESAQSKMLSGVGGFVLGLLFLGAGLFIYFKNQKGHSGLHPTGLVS

[9] = molecular target: T9, DP401=HLA-DP(α1*0101,α1*0401) (Homo sapiens, UniProt P04440+P20036); assay: biochemical; type: binding
T9 sequence (P20036 32-260 limits assumed): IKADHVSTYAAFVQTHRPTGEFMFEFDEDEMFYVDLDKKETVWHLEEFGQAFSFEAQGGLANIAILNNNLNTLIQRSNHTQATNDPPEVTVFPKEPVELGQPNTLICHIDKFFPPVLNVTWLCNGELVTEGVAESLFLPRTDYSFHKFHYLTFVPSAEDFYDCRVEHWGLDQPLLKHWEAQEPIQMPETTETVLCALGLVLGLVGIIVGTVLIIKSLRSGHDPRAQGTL
T9 sequence (P04440 30-258): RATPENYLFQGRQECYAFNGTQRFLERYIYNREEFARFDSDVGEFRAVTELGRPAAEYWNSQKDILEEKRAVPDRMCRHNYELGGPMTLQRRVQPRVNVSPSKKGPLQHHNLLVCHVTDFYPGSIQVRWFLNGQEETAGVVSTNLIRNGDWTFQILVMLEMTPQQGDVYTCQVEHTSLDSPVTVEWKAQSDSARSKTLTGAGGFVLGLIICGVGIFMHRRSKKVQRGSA

[10] = molecular target: T10, DR15=HLA-DR(α1*0101,α1*1501) (Homo sapiens, UniProt P01903+P01911); assay: HLA-DR specific binding assay, DR15
T10 construct: endogenous in cells; host or cells: EBV homozygous human B cell line

[11] = molecular target: T11, DP402 DP (α1*0101, α1*0402) (Homo sapiens, UniProt P04440+P20036, A65V/A84D/A85E/L207M); assay: biochemical; type: binding
T11 sequence (P20036 29-260): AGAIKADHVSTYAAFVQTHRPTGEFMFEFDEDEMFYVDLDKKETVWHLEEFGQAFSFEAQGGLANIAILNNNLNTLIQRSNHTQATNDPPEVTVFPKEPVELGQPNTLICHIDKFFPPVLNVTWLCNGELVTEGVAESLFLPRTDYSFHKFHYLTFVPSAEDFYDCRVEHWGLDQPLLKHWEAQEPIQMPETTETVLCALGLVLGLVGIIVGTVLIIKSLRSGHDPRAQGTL
T11 sequence (P04440 30-258 A65V/A84D/A85E): T9 sequence (P04440 30-258) with A36V, A55D, A56E

[12] = molecular target: T12, DR1=HLA-DR(α1*0101,α1*0101) (Homo sapiens, UniProt P01903+P01911, A100R/D57E/F55L/F60I/F76Y/I96L/L162R/M171V/P40L/Q125E/R42F/V115G/Y59C); assay: biochemical; type: binding; settings: […]
T12 construct: endogenous in cells; host or cells: EBV homozygous human B cell line

[13] = Table V, […], read-out: IC50 DR11
[14] = Table V, […], read-out: IC50 DR4

Row | Structure (SMILES) | IC50 [1, 13] [nM] | IC50 ([2]; IC50 DRB3, Table V, […]) [nM] | IC50 [3, 14] [nM] | IC50 ([4]; IC50 DR3, Table V, […]) [nM] | IC50 [5] [nM] | IC50 [6] [nM] | IC50 [7] [nM] | IC50 [8] [nM] | IC50 ([9]; Table V, […]) [nM] | IC50 [10] [nM] | IC50 ([11]; Class II MHC allele DP402) [nM] | IC50 ([11]; Table V, […]) [nM] | IC50 ([12]; Table V, read-out: IC50 DR1) [nM] | IC50 ([4]; IC50, DR3, Class II MHC allele DR3) [nM] | IC50 ([9]; Class II MHC allele DP401) [nM] | IC50 ([12]; Class II MHC allele DR1, read-out: IC50, DR1) [nM] | IC50 ([2]; IC50, DRD3, Class II MHC allele DRD3 (so in the source)) [nM] | IC50 ([3]; IC50 DR4) [nM] | IC50 ([1]; Class II MHC allele DR11, read-out: IC50, DR11) [nM]
1 | CSCC[C@H](NC(=O)[C@H](CC(=O)O)NC(=O)[C@@H](NC(=O)[C@@H](NC(=O)[C@H](CCCCN)NC(=O)[C@H](C)NC(=O)[C@H](CO)NC(=O)[C@H](CC(C)C)NC(=O)[C@H](CC(C)C)NC(=O)[C@H](C)NC(=O)[C@H](CO)NC(=O)[C@@H](NC(=O)CN)[C@@H](C)O)C(C)C)[C@@H](C)O)C(=O)N[C@H](C(=O)N[C@@H](CCSC)C(=O)N[C@@H](CCCNC(=N)N)C(=O)N[C@@H](CCCCN)C(=O)N[C@@H](CCCNC(=N)N)C(=O)N[C@@H](CCCNC(=N)N)C(=O)N[C@@H](CC(N)=O)C(=O)N[C@H](C(=O)N[C@@H](CC(N)=O)C(=O)N[C@@H](Cc1ccc(O)cc1)C(=O)N[C@H](C(=O)N[C@@H](CCC(N)=O)C(=O)N[C@H](C(=O)N1CCC[C@H]1C(=O)N[C@@H](CC(N)=O)C(=O)N[C@@H](CCCCN)C(=O)N[C@@H](CC(=O)O)C(=O)NCC(=O)N[C@@H](CC(=O)O)C(=O)N[C@@H](C)C(=O)N[C@@H](CC(=O)O)C(=O)O)C(C)C)[C@@H](C)O)[C@@H](C)O)C(C)C [HSV 9] | 424 | 58000 | 4000 | 11400 | 16000 | 362 | 229 | 559 | 8000 | 2430 | 4000 | 4000 | 493 |  |  |  |  |  | 
2 | CSCC[C@H](NC(=O)[C@H](CCCCN)NC(=O)[C@H](CC(C)C)NC(=O)[C@H](CO)NC(=O)[C@H](C)NC(=O)[C@H](CC(=O)O)NC(=O)[C@@H](NC(=O)[C@H](CC(C)C)NC(=O)[C@H](C)NC(=O)[C@H](Cc1ccc(O)cc1)NC(=O)[C@H](CCCCN)NC(=O)[C@@H](N)CO)C(C)C)C(=O)N[C@@H](C)C(=O)N[C@@H](CC(=O)O)C(=O)N1CCC[C@H]1C(=O)N[C@@H](CC(N)=O)C(=O)N[C@@H](CCCNC(=N)N)C(=O)N[C@@H](Cc1ccccc1)C(=O)N[C@@H](CCCNC(=N)N)C(=O)NCC(=O)N[C@@H](CCCCN)C(=O)N[C@@H](CC(=O)O)C(=O)N[C@@H](CC(C)C)C(=O)N1CCC[C@H]1C(=O)N[C@H](C(=O)N[C@@H](CC(C)C)C(=O)N[C@@H](CC(=O)O)C(=O)N[C@@H](CCC(N)=O)C(=O)N[C@@H](CC(C)C)C(=O)O)C(C)C [HSV 30] | 648 | 535 | 58 | 78 | > 100000 | > 100000 | 374 | 7 | 17900 | 11000 |  | 3800 |  | 79 | 17700 | 58 |  |  | 
3 | CC[C@H](C)[C@H](NC(=O)[C@H](Cc1c[nH]cn1)NC(=O)[C@H](Cc1ccc(O)cc1)NC(=O)[C@@H](NC(=O)[C@H](CCCNC(=N)N)NC(=O)[C@H](CCCNC(=N)N)NC(=O)[C@@H](NC(=O)CNC(=O)[C@@H]1CCCN1C(=O)[C@@H]1CCCN1C(=O)[C@H](CC(=O)O)NC(=O)[C@@H](NC(=O)[C@H](CC(C)C)NC(=O)[C@H](CCC(N)=O)NC(=O)[C@H](CC(=O)O)NC(=O)[C@H](CC(C)C)NC(=O)[C@@H](NC(=O)[C@@H]1CCCN1C(=O)[C@H](CC(C)C)NC(=O)[C@@H](N)CC(=O)O)C(C)C)[C@@H](C)O)C(C)C)C(C)C)C(=O)N[C@@H](CCC(N)=O)C(=O)N[C@@H](C)C(=O)NCC(=O)N[C@@H](CC(C)C)C(=O)N1CCC[C@H]1C(=O)N[C@@H](CC(=O)O)C(=O)N1CCC[C@H]1C(=O)N[C@@H](Cc1ccccc1)C(=O)N[C@@H](CCC(N)=O)C(=O)N1CCC[C@H]1C(=O)N1CCC[C@H]1C(=O)N[C@@H](CO)C(=O)O [HSV 31] |  | 5980 |  | 2490 | 397 | > 100000 | 224 | 58 | 62000 | 787 | 49000 | 47000 | 3 |  |  |  | 6980 | 63 | 
4 | CC[C@H](C)[C@H](NC(=O)[C@H](CCC(N)=O)NC(=O)[C@@H]1CCCN1C(=O)[C@H](C)N)C(=O)N[C@H](C(=O)N[C@@H](CCCNC(=N)N)C(=O)NCC(=O)N[C@@H](C)C(=O)N[C@@H](CO)C(=O)N[C@@H](CCC(=O)O)C(=O)N[C@@H](CC(=O)O)C(=O)N[C@H](C(=O)N[C@@H](CCCNC(=N)N)C(=O)N[C@@H](CCCCN)C(=O)N[C@@H](CCC(N)=O)C(=O)N1CCC[C@H]1C(=O)N[C@@H](Cc1ccc(O)cc1)C(=O)N[C@@H](CC(N)=O)C(=O)N[C@@H](CC(C)C)C(=O)N[C@H](C(=O)N[C@H](C(=O)N[C@@H](C)C(=O)N[C@@H](Cc1c[nH]c2ccccc12)C(=O)N[C@@H](Cc1ccccc1)C(=O)N[C@@H](CCCNC(=N)N)C(=O)N[C@@H](CCSC)C(=O)NCC(=O)NCC(=O)O)[C@@H](C)CC)[C@@H](C)O)C(C)C)C(C)C [HSV 32] | 300 | > 100000 |  | 2350 |  |  | 4 | 1 | 1450 |  |  | 381 |  |  |  |  |  |  | 300
